According to PMC9598925, “Synthetic Amphipathic β-Sheet Temporin-Derived Peptide with Dual Antibacterial and Anti-Inflammatory Activities” (Antibiotics, 2022):
Values after ≈ are worked out from the molar mass of the structure shown. Like-named read-outs stand apart in the source and are kept apart here. Non-standard residues stand in square brackets, D forms with d. Residues, ends and D or L forms follow the SMILES beside them. Nle = CCCC[C@H](N)C(=O)O

What was measured:
[1] = tested on: HaCaT cells; test: Cytotoxicity on human keratinocytes, MTT assay; type: cell-based; conditions: 3.12–12.5 μM, 2 h and 24 h
Description: The human immortalized keratinocytes HaCaT cells were purchased from AddexBio (San Diego, CA, USA) and cultured in Dulbecco’s modified Eagle’s medium supplemented with 4 mM glutamine (DMEMg), 10% heat-inactivated fetal bovine serum (FBS), and 0.1 mg/mL of penicillin and streptomycin, at 37 °C and 5% CO2, in 25 cm^2 or 75 cm^2 flasks. The in vitro MTT [3-(4,5-dimethylthiazol-2-yl)-2,5-diphenyltetrazolium bromide] assay, based on the reduction of the yellow tetrazolium salt MTT to the purple formazan by viable cells with active metabolism, was used to evaluate the peptide cytotoxicity on HaCaT cells, as previously described in [27]. Specifically, 4 × 10^4 HaCaT cells, suspended in DMEMg supplemented with 2% FBS were plated in a 96-well microtiter plate. After overnight incubation, at 37 °C in a 5% CO2 atmosphere, HaCaT cells were treated for 2 h or 24 h with fresh serum free medium containing the peptide [Nle^1, DLeu^9, DLys^10]TL in a concentration range from 3.12 to 100 μM. […] Formazan crystals were dissolved using acidified isopropanol, and the absorbance of each well was measured at 570 nm using a microplate reader (Infinite M200; Tecan, Salzburg, Austria). The number of viable cells was proportional to the intensity of purple color and was expressed as percentage compared to that of untreated control cells (100%). […]

[2] = tested on: J774A.1 murine macrophage cells; conditions: MTT, 3 independent experiments
Description: The spectrophotometric absorbance was then measured using a microtiter enzyme-linked immunosorbent assay reader (Multiskan™ GO Microplate Spectrophotometer; Thermo Scientific™, Milan, Italy) at 540 nm. The percentage of cell viability was assessed by the following formula: (OD of treated cells/OD of control) × 100.

[3] = tested on: S. epidermidis ATCC 12228; type: cell-based
Description: (§1) All Gram-negative and Gram-positive strains were obtained from the American Type Culture Collection (Rockville, MD, USA). MICs were determined as described previously. 50 μL of bacterial culture properly diluted in Mueller–Hinton (MH) broth were added to each well of a 96-well plate containing 50 μL of MH with serially two-fold diluted peptide from 100 μM, to reach a final cell density of 1 × 10^6 CFU/mL. Each MIC value indicates the lowest concentration of compound that causes a total inhibition of bacterial growth after 16–18 h of incubation at 37 °C.

[4] = tested on: E. coli ATCC 25922; type: cell-based
Description: as §1

[5] = tested on: B. megaterium Bm11; type: cell-based
Description: as §1

[6] = tested on: S. aureus ATCC 25923; type: cell-based
Description: as §1

[7] = tested on: P. aeruginosa ATCC 27853; type: cell-based
Description: as §1

[8] = tested on: A. baumannii ATCC 19606; type: cell-based
Description: as §1

[9] = tested on: K. pneumoniae ATCC BAA-1705; type: cell-based
Description: as §1

[10] = ANTS/DPX leakage assay; conditions: 100% = 0.1% Triton
Description: The ability of the peptide [Nle^1, DLeu^9, DLys^10]TL to induce LUVs leakage was evaluated using ANTS/DPX assay. After the preparation of lipid films (0.1 mM) as described above, fluorophores ANTS (12.5 mM) and DPX (45 mM) were dissolved in water and added to lipid films. The mixture was frozen and lyophilized overnight. Then, the lipid films with ANTS and DPX were hydrated with PBS 1× buffer, vortexed for 1 h and then treated to obtain LUVs. The nonencapsulated ANTS and DPX were removed by gel filtration using a Sephadex G-50 column (1.5 cm × 10 cm) at room temperature. The leakage experiment was performed titrating LUVs with different peptide concentrations of 5, 10, 15, 20, 30, 50 μM, and each sample was excited at 385 nm (slit width, 5 nm) and the fluorescence emission was recorded at 512 nm (slit width, 5 nm). The liposomes leakage promoted by peptide was correlated with an increase of ANTS fluorescence at 512 nm. In this experiment, the control was represented by the complete release of ANTS after the treatment of LUVs with 0.1% Triton. The liposomes leakage was calculated as % Leakage = (Fi − F0)/(Ft − F0), where F0 is the fluorescence of intact LUVs before the addition of peptide, and Fi and Ft is the intensities of the fluorescence achieved after peptide and Triton-X treatment, respectively.

[11] = Circular dichroism in vesicles; type: physicochemical; conditions: vesicles of DOPG/CL and DOPG/DOPE/CL, peptide 3 μM, phosphate buffer 5 mM pH 7.4, 25 °C; negative band at ~220 nm
Description: All CD spectra were recorded from 260 to 190 nm (a bandwidth of 3 nm, a time constant of 16 s, and a scan rate of 10 nm/min) on a Jasco J-175 spectropolarimeter using a 1 cm quartz cell at 25 °C. Small unilamellar vesicles (SUVs) made of DOPG/CL (58/42 ratio in moles) and DOPG/DOPE/CL (63/23/12 ratio in moles) were used in the conformational study. SUVs were prepared as reported previously. Firstly, lipids dissolved in chloroform and an equal volume of peptide solution dissolved in 2,2,2-trifluoroethanol (TFE) containing the peptide [Nle^1, DLeu^9, DLys^10]TL at a concentration of 3 μM were mixed, vortexed, and lyophilized overnight. Then, the dry samples were hydrated with phosphate buffer 5 mM, pH 7.4, for 1 h and sonicated for 30 min to obtain SUVs. Each spectrum was corrected for the blank and converted into mean molar ellipticity.

For CCCC[C@H](N)C(=O)N[C@@H](Cc1ccccc1)C(=O)N[C@H](C(=O)N1CCC[C@H]1C(=O)N[C@@H](Cc1c[nH]c2ccccc12)C(=O)N[C@@H](Cc1ccccc1)C(=O)N[C@@H](CO)C(=O)N[C@@H](CCCCN)C(=O)N[C@@H](Cc1ccccc1)C(=O)N[C@H](CC(C)C)C(=O)N[C@H](CCCCN)C(=O)N[C@@H](CCCNC(=N)N)C(=O)N[C@H](C(=O)N[C@@H](CC(C)C)C(N)=O)[C@@H](C)CC)C(C)C [[Nle^1, DLeu^9, DLys^10]TL] (H-[Nle]FVPWFSKF[dL][dK]RIL-NH2), the “effect on human keratinocytes viability” value [1] was “only a slight reduction”, the “cytotoxic effect on murine macrophage cell line” value ([2]; J774A.1, 1–3 μM) was “safe profile” and the “cytotoxic effect on murine macrophage cell line” value ([2]; J774A.1, 10 and 30 μM) was “significant reduction of cell viability”. It also gave an MIC [3] of 3.12 µM (≈ 5.6 µg/mL), an MIC [4] of 6.25 µM (≈ 11.2 µg/mL) and an MIC [5] of 0.78 µM (≈ 1.4 µg/mL). The MIC [6] was 3.12 µM (≈ 5.6 µg/mL), the MIC [7] was 12.5 µM (≈ 22.4 µg/mL) and the MIC [8] was 3.12 µM (≈ 5.6 µg/mL). The MIC [9] was 12.5 µM (≈ 22.4 µg/mL), the LUVs leakage ([10]; 10 μM peptide, LUVs DOPG/CL) was ~ 60% and the LUVs leakage ([10]; highest concentration of 50 μM, LUVs DOPG/DOPE/CL) was ~ 20%. For the same molecule, the “molecular conformation (CD)” value [11] was “β-type conformation”.
